Key:
[1] = Liquid
[2] = xn = mol fraction of the nth substance listed; details: Liquid, x1 = 1

CCO [ethanol]
viscosity [mPa·s], [1]
Details	293.15 K	313.15 K	333.15 K	353.15 K
100 kPa, Capillary tube (Ostwald / Ubbelohde) method	1.194	0.826	0.59	–
20000 kPa, Falling or rolling sphere viscometry	1.344	0.948	0.683	0.51
40000 kPa, Falling or rolling sphere viscometry	1.494	1.059	0.769	0.574
60000 kPa, Falling or rolling sphere viscometry	1.647	1.171	0.851	0.636
80000 kPa, Falling or rolling sphere viscometry	1.797	1.282	0.934	0.699
100000 kPa, Falling or rolling sphere viscometry	1.955	1.392	1.015	0.763

CCO [ethanol] + CCCCCCC
viscosity [mPa·s], [2]
Details	293.15 K	313.15 K	333.15 K	353.15 K
100 kPa, Capillary tube (Ostwald / Ubbelohde) method	1.194	0.826	0.59	–
20000 kPa, Falling or rolling sphere viscometry	1.344	0.948	0.683	0.51
40000 kPa, Falling or rolling sphere viscometry	1.494	1.059	0.769	0.574
60000 kPa, Falling or rolling sphere viscometry	1.647	1.171	0.851	0.636
80000 kPa, Falling or rolling sphere viscometry	1.797	1.282	0.934	0.699
100000 kPa, Falling or rolling sphere viscometry	1.955	1.392	1.015	0.763

CCCCCCC [heptane]
viscosity [mPa·s], [1]
Details	293.15 K	313.15 K	333.15 K	353.15 K
100 kPa, Capillary tube (Ostwald / Ubbelohde) method	0.41	0.333	0.276	0.232
20000 kPa, Falling or rolling sphere viscometry	0.509	0.408	0.336	0.289
40000 kPa, Falling or rolling sphere viscometry	0.604	0.487	0.402	0.346
60000 kPa, Falling or rolling sphere viscometry	0.706	0.57	0.472	0.401
80000 kPa, Falling or rolling sphere viscometry	0.817	0.658	0.546	0.458
100000 kPa, Falling or rolling sphere viscometry	0.937	0.751	0.623	0.521
